Patent US8735439B2, “Chlorin e6-folic acid conjugate, preparation method thereof, and a pharmaceutical composition for the treatment of cancer comprising the same” (Diatech Korea Co., Ltd., priority 2009, dated 2014)

System: sarcoma M-1
Assay: Growth of sarcoma M-1 after PDT (tumor volume)
Assay type: in vivo, rats
Description: For this purpose, a laser medical instrument “ ? 680-2000” (BIOSPEC, Moscow) was used to perform the exposure at a wavelength of 670 nm in a dose of 100 J/cm^2. The power density was 0.51 W/cm^2, the output power was 0.4 W, and the spot light diameter was 1 cm. Time of exposure was […]. Monitoring over radiating power was conducted by a universal power meter included in the laser device “ ? 4680-2000”.

For “[γ-(6-aminohexyl)folic acid]-chlorin e6 [chlorin e6 conjugate]”, the “Growth inhibition rate of sarcoma M-1 in volume to the control” value (“Growth inhibition rate” for short) (2.5 mg/100 g + 100 J/cm^2 for 1 h, day 7) was 47.5%, the “Growth inhibition rate” value (2.5 mg/100 g + 100 J/cm^2 for 1 h, day 10) was 79.4% and the “Growth inhibition rate” value (2.5 mg/100 g + 100 J/cm^2 for 1 h, day 12) was 87.6%. For the same substance, the “Growth inhibition rate” value (2.5 mg/100 g + 100 J/cm^2 for 1 h, day 14) was 89.8%, the “Growth inhibition rate” value (2.5 mg/100 g + 100 J/cm^2 for 1 h, day 17) was 94.8% and the “Growth inhibition rate” value (2.5 mg/100 g + 100 J/cm^2 for 1 h, day 19) was 94.1%. For the same substance, the “Growth inhibition rate” value (2.5 mg/100 g + 100 J/cm^2 for 1 h, day 21) was 94.2%, the “Growth inhibition rate” value (2.5 mg/100 g + 100 J/cm^2 for 1 h, day 24) was 93.6% and the “volume of sarcoma M-1” value (2.5 mg/kg + 100 J/cm^2 for 1 h, day 7 after tumor transplant) was 0.25 ± 0.03 cm^3. For the same substance, the “volume of sarcoma M-1” value (2.5 mg/kg + 100 J/cm^2 for 1 h, day 10) was 0.28 ± 0.03 cm^3, the “volume of sarcoma M-1” value (2.5 mg/kg + 100 J/cm^2 for 1 h, day 12) was 0.34 ± 0.06 cm^3 and the “volume of sarcoma M-1” value (2.5 mg/kg + 100 J/cm^2 for 1 h, day 14) was 0.41 ± 0.09 cm^3. For the same substance, the “volume of sarcoma M-1” value (2.5 mg/kg + 100 J/cm^2 for 1 h, day 17) was 0.46 ± 0.11 cm^3, the “volume of sarcoma M-1” value (2.5 mg/kg + 100 J/cm^2 for 1 h, day 19) was 0.69 ± 0.27 cm^3 and the “volume of sarcoma M-1” value (2.5 mg/kg + 100 J/cm^2 for 1 h, day 21) was 0.96 ± 0.38 cm^3. For the same substance, the “volume of sarcoma M-1” value (2.5 mg/kg + 100 J/cm^2 for 1 h, day 24) was 1.19 ± 0.48 cm^3, the “Growth inhibition rate” value (5 mg/100 g + 100 J/cm^2 for 1 h, day 7) was 36.9% and the “Growth inhibition rate” value (5 mg/100 g + 100 J/cm^2 for 1 h, day 10) was 77.9%. The “Growth inhibition rate” value (5 mg/100 g + 100 J/cm^2 for 1 h, day 12) was 89.1%, the “Growth inhibition rate” value (5 mg/100 g + 100 J/cm^2 for 1 h, day 14) was 92.6% and the “Growth inhibition rate” value (5 mg/100 g + 100 J/cm^2 for 1 h, day 17) was 95.8%. The “Growth inhibition rate” value (5 mg/100 g + 100 J/cm^2 for 1 h, day 19) was 95.9%, the “Growth inhibition rate” value (5 mg/100 g + 100 J/cm^2 for 1 h, day 21) was 96.9% and the “Growth inhibition rate” value (5 mg/100 g + 100 J/cm^2 for 1 h, day 24) was 97.1%. For the same substance, the “volume of sarcoma M-1” value (5 mg/kg + 100 J/cm^2 for 1 h, day 7 after tumor transplant) was 0.29 ± 0.02 cm^3, the “volume of sarcoma M-1” value (5 mg/kg + 100 J/cm^2 for 1 h, day 10) was 0.300 ± .03 cm^3 and the “volume of sarcoma M-1” value (5 mg/kg + 100 J/cm^2 for 1 h, day 12) was 0.30 ± 0.03 cm^3. For the same substance, the “volume of sarcoma M-1” value (5 mg/kg + 100 J/cm^2 for 1 h, day 14) was 0.30 ± 0.03 cm^3, the “volume of sarcoma M-1” value (5 mg/kg + 100 J/cm^2 for 1 h, day 17) was 0.37 ± 0.05 cm^3 and the “volume of sarcoma M-1” value (5 mg/kg + 100 J/cm^2 for 1 h, day 19) was 0.47 ± 0.11 cm^3. For the same substance, the “volume of sarcoma M-1” value (5 mg/kg + 100 J/cm^2 for 1 h, day 21) was 0.50 ± 0.14 cm^3, the “volume of sarcoma M-1” value (5 mg/kg + 100 J/cm^2 for 1 h, day 24) was 0.54 ± 0.17 cm^3 and the “Growth inhibition rate” value (10 mg/100 g + 100 J/cm^2 for 1 h, day 7) was 56.5%. The “Growth inhibition rate” value (10 mg/100 g + 100 J/cm^2 for 1 h, day 10) was 86.0%, the “Growth inhibition rate” value (10 mg/100 g + 100 J/cm^2 for 1 h, day 12) was 93.8% and the “Growth inhibition rate” value (10 mg/100 g + 100 J/cm^2 for 1 h, day 14) was 95.8%. For the same substance, the “Growth inhibition rate” value (10 mg/100 g + 100 J/cm^2 for 1 h, day 17) was 98.1%, the “Growth inhibition rate” value (10 mg/100 g + 100 J/cm^2 for 1 h, day 19) was 95.2% and the “Growth inhibition rate” value (10 mg/100 g + 100 J/cm^2 for 1 h, day 21) was 98.8%. For the same substance, the “Growth inhibition rate” value (10 mg/100 g + 100 J/cm^2 for 1 h, day 24) was 98.9%, the “volume of sarcoma M-1” value (10 mg/kg + 100 J/cm^2 for 1 h, day 7 after tumor transplant) was 0.20 ± 0.03 cm^3 and the “volume of sarcoma M-1” value (10 mg/kg + 100 J/cm^2 for 1 h, day 10) was 0.19 ± 0.04 cm^3. The “volume of sarcoma M-1” value (10 mg/kg + 100 J/cm^2 for 1 h, day 12) was 0.17 ± 0.03 cm^3, the “volume of sarcoma M-1” value (10 mg/kg + 100 J/cm^2 for 1 h, day 14) was 0.17 ± 0.03 cm^3 and the “volume of sarcoma M-1” value (10 mg/kg + 100 J/cm^2 for 1 h, day 17) was 0.17 ± 0.03 cm^3. The “volume of sarcoma M-1” value (10 mg/kg + 100 J/cm^2 for 1 h, day 19) was 0.17 ± 0.03 cm^3, the “volume of sarcoma M-1” value (10 mg/kg + 100 J/cm^2 for 1 h, day 21) was 0.20 ± 0.03 cm^3 and the “volume of sarcoma M-1” value (10 mg/kg + 100 J/cm^2 for 1 h, day 24) was 0.20 ± 0.03 cm^3. The “inhibition rate of tumor volumetric growth compared to the control” value (rats with sarcoma M-1, monitored for 24 days after PDT) was 86.34-99.1%.
